{"source": "patent US20240000942A1", "about": "“Craniofacial implant made of polyether ether ketone (PEEK) with deposits to store and release active substances or active Ingredient” (Arcosystem SPA, priority 2022, published 2024)", "experiment": "Stability of the vancomycin solution within the implant reservoir (HPLC)", "format": "physicochemical", "protocol": "For this, a time zero (To) sample corresponding to a sample that was immediately analyzed after its reconstitution was analyzed, along with a sample that was left to rest for 24 hours within the implant. In this way, results from the 24 hour time frame were compared with those of time zero as sample areas and degradation percentage at 24 hours.\nShaking up to the complete solution of the lyophilized powder, taking 0.5 mL of said ampule, and diluted with physiological saline solution up to 5 mL of final volume. This 5 mL of solution is injected in the reservoir of the implant. […] Said 0.5 mL were diluted up to 5 mL of final volume using 0.2M potassium dibasic phosphate buffer adjusted to pH 7.4. Then, using a syringe, said volume was loaded in the reservoir or capsule of the implant, the implant was then sealed and incorporated in an empty beaker. Nominal concentration of the solution within the reservoir is […].\nAfter 24 hours, the chamber or reservoir was opened to extract the 0.5 mL of the solution contained within. Of said 0.5 mL extracted from the reservoir, a 0.1 mL aliquot is taken that then is transferred to a 100 mL flask for its analysis using HPLC, considering the same calibration and standard curves that were described for the previous example.", "note": "Values joined by “and” are separate entries in the source; they are usually repeats but may differ in a detail not shown here. Equal entries are not always repeated. “Also recorded” adds a separate entry of the source."}
{"molecule": "CN[C@H](CC(C)C)C(=O)N[C@H]1C(=O)N[C@@H](CC(N)=O)C(=O)N[C@H]2C(=O)N[C@H]3C(=O)N[C@H](C(=O)N[C@H](C(=O)O)c4cc(O)cc(O)c4-c4cc3ccc4O)[C@H](O)c3ccc(c(Cl)c3)Oc3cc2cc(c3O[C@@H]2O[C@H](CO)[C@@H](O)[C@H](O)[C@H]2O[C@H]2C[C@](C)(N)[C@H](O)[C@H](C)O2)Oc2ccc(cc2Cl)[C@H]1O", "note": "[vancomycin]", "values": [{"measurement": "HPLC sample area", "setting": "24 hour period within the implant", "result": "94679 and 94744"}, {"measurement": "HPLC sample area", "setting": "24 hour period within the implant, mean", "result": 94711.5}, {"measurement": "degradation of vancomycin within the implant (in words)", "setting": "24 hours", "result": "not significant; also recorded: no indication of significative degradation"}, {"measurement": "HPLC sample area", "setting": "Time 0 (analyzed immediately after reconstitution)", "result": "948050 and 948671"}, {"measurement": "HPLC sample area", "setting": "Time 0 (analyzed immediately after reconstitution), mean", "result": 948360.5}]}
